The subject of experiment [1] is Erysiphe graminis f. sp. tritici. Nature of the experiment: Erysiphe graminis f. sp. tritici (wheat powdery mildew), wheat leaf segments, preventive. The format is in vivo. The settings on record: Blumeria graminis, foliar, 168 h, 7 dpi, compared to untreated control. The procedure: Wheat leaf segments are placed on agar in multiwell plates (24-well format) and sprayed with test solutions. After drying, the leaf disks are inoculated with spores of the fungus. After appropriate incubation the activity of a compound is assessed 7 dpi (days post inoculation) as preventive fungicidal activity.

In a further experiment the test system is Alternaria solani. The experiment is described as follows: Alternaria solani (early blight of tomatoes), tomato leaf disks. The settings on record: foliar, inoculated 2 days after application, compared to untreated control. The experiment is classed as in vivo. The protocol:
Alternaria solani (Early Blight of Tomatoes) Tomato leaf disks are placed on agar in multiwell plates (24-well format) and sprayed with the formulated test compound diluted in water. The leaf disks are inoculated with a spore suspension of the fungus 2 days after application. The inoculated leaf disks are incubated at 23° C./21° C.

Experiment [2] relates to Puccinia recondita f. sp. tritici. The experiment is described as follows: Puccinia recondita (brown rust), curative, wheat leaf segments. The format is in vivo. The settings on record: foliar, 192 h, sprayed 1 day after inoculation, 8 dpi, compared to untreated control. The procedure:
Wheat leaf segments are placed on agar in multiwell plates (24-well format). The leaf segments are inoculated with a spore suspension of the fungus and sprayed with test solutions 1 day after inoculation. After appropriate incubation the activity of a compound is assessed 8 dpi (days after inoculation) as curative fungicidal activity.

In the next experiment the test system is Mycosphaerella arachidis. Nature of the experiment: Mycosphaerella arachidis syn. Cercospora arachidicola (brown leaf spot of peanut), liquid culture growth inhibition. The format is cell-based. The settings on record: nutrient broth (PDB), approximately 5-6 days, photometric at 620 nm, compared to untreated control. The protocol: Conidia of the fungus from cryogenic storage were directly mixed into nutrient broth (PDB potato dextrose broth). A DMSO solution of the test compounds was placed into a microtiter plate (96-well format) and the nutrient broth containing the fungal spores was added to it. The test plates were incubated at 24° C. and the inhibition of growth was determined photometrically after approximately 5-6 […] at 620 nm.

The subject of experiment [3] is Puccinia recondita f. sp. tritici. Nature of the experiment: Puccinia recondita (brown rust), preventative, wheat leaf segments. The experiment is classed as in vivo. The settings on record: foliar, 192 h, 8 dpi, compared to untreated control. The protocol:
Wheat leaf segments are placed on agar in multiwell plates (24-well format) and sprayed with test solutions. After drying, the leaf segments are inoculated with a spore suspension of the fungus. After appropriate incubation the activity of a compound is assessed 8 dpi (days after inoculation) as preventative fungicidal activity.

A further experiment relates to Plasmopara viticola. Nature of the experiment: Plasmopara viticola (downy mildew of grapevine), grape vine leaf disks, preventive. The settings on record: foliar, 168 h, 7 dpi, compared to untreated control. The experiment is classed as in vivo. The protocol:
Grape vine leaf disks are placed on agar in multiwell plates (24-well format) and sprayed with test solutions. After drying, the leaf disks are inoculated with a spore suspension of the fungus. After appropriate incubation the activity of a compound is assessed 7 dpi (days after inoculation) as preventive fungicidal activity.

A further experiment has as its system Pyricularia oryzae. The experiment is described as follows: whole plant or invertebrate. The format is in vivo. The settings on record: foliar, 120 h, read-out: control of Pyricularia oryzae.
Another experiment has as its system Phytophthora infestans. Nature of the experiment: whole plant or invertebrate. The format is in vivo. The settings on record: in Solanum lycopersicum, foliar, 96 h, read-out: control of Phytophthora infestans.
The test system of the next experiment is Glomerella lagenarium. Nature of the experiment: Glomerella lagenarium syn. Colletotrichum lagenarium (anthracnose of cucurbits), liquid culture growth inhibition. The settings on record: Colletotrichum orbiculare, nutrient broth (PDB), 72 hrs, photometric at 620 nm, compared to untreated control. The format is cell-based. The protocol:
Glomerella lagenarium Syn. Colletotrichum lagenarium (Anthracnose of Cucurbits): Conidia of the fungus from cryogenic storage were directly mixed into nutrient broth (PDB potato dextrose broth). A DMSO solution of the test compounds was placed into a microtiter plate (96-well format) and the nutrient broth containing the fungal spores was added to it. The test plates were incubated at 24° C. and the inhibition of growth was determined photometrically after 72 hrs at 620 nm. […]

The test system of a further experiment is Monographella nivalis. Nature of the experiment: Monographella nivalis syn. Microdochium nivale (snow mould, foot rot of cereals), liquid culture growth inhibition. The experiment is classed as cell-based. The settings on record: nutrient broth (PDB), 72 hrs, photometric at 620 nm, compared to untreated control. The protocol: Conidia of the fungus from cryogenic storage were directly mixed into nutrient broth (PDB potato dextrose broth). A DMSO solution of the test compounds was placed into a microtiter plate (96-well format) and the nutrient broth containing the fungal spores was added to it. The test plates were incubated at 24° C. and the inhibition of growth was determined photometrically after 72 hrs at 620 nm. […] Cercospora arachidicola (Brown Leaf Spot of Peanut): […]

The subject of experiment [4] is Phakopsora pachyrhizi. The experiment is described as follows: Phakopsora pachyrhizi (soybean rust), soybean leaf disks, preventive. The experiment is classed as in vivo. The settings on record: foliar, 288 h, approx. 12 dpi, compared to untreated control. The procedure: Soybean leaf disks are placed on agar in multiwell plates (24-well format) and sprayed with test solutions. After drying, the leaf disks are inoculated with a spore suspension of the fungus. After appropriate incubation the activity of a compound is assessed approx. 12 dpi (days after inoculation) as preventive fungicidal activity.

Experiment [5] has as its system Phakopsora pachyrhizi. Nature of the experiment: Example D: comparative activity against Phakopsora pachyrhizi (soybean rust), soybean plants sprayed, leaf disks cut from treated plants. The format is in vivo. The settings on record: 0.1% OCHIMA, leaf disks cut one day after application, approx. 12 dpi. The protocol: Method: Soybean plants are sprayed in a spray chamber with formulated DMSO compound solutions which are diluted to the appropriate concentration with 0.1% […] (adjuvant comprising polyethoxylated sorbitol hexaoleate and tris(2-ethylhexyl) phosphate) just before spraying. Leaf disks are cut from treated plants and placed on agar into 24-well plates one day after application. After, the leaf disks are inoculated with a spore suspension of the fungus. After appropriate incubation the activity of a compound is assessed approx. 12 dpi (days after inoculation) as preventive fungicidal activity. The data are presented as the percentage of disease control of each compound for the biological tests and testing rates described below in Table 1.

Experiment [6] relates to Phakopsora pachyrhizi. Nature of the experiment: Example E: comparative activity against Phakopsora pachyrhizi (soybean rust), soybean leaf disks sprayed. The settings on record: 0.025% Tween20, approx. 12 dpi. The format is in vivo. The protocol:
Method: Compounds to be tested are prepared as DMSO solutions which are diluted to the appropriate concentration with 0.025% Tween20 just before spraying. Soybean leaf disks are placed on agar in multiwell plates (24-well format) and sprayed with test solutions. After drying, the leaf disks are inoculated with a spore suspension of the fungus. After appropriate incubation the activity of a compound is assessed approx. 12 dpi (days after inoculation) as preventive fungicidal activity. The data are presented as the percentage of disease control of each compound for the biological tests and testing rates described below in Table J.

A further experiment has as its system Puccinia recondita. The experiment is described as follows: Example C: comparative activity against Puccinia recondita (brown rust), curative, wheat leaf segments. The settings on record: 8 dpi. The experiment is classed as in vivo. The protocol:
Method; Wheat leaf segments are placed on agar in multiwell plates (24-well format). The leaf segments are inoculated with a spore suspension of the fungus and sprayed with test solutions 1 day after inoculation. After appropriate incubation the activity of a compound is assessed 8 dpi (days after inoculation) as curative fungicidal activity. The data are presented as the percentage of disease control of each compound for the biological tests and testing rates described below in table H.

As for `CO/C=C(\Oc1cc(C2CCCCC2)c(F)cc1C)C(=O)OC` [E.16, methyl (Z)-2-(5-cyclohexy1-4-fluoro-2-methyl-phenoxy)-3-methoxy-prop-2-enoate], the pest or weed control at 200 ppm (in experiment [1]; with Alternaria solani; in [2]; in [3]; with Plasmopara viticola; with Pyricularia oryzae) was at least 80% in each case. The pest or weed control at 200 ppm with Phytophthora infestans was at least 80%. The inhibition of growth at 20 ppm in the experiment on Mycosphaerella arachidis, in the experiment on Glomerella lagenarium and with Monographella nivalis was at least 80% throughout.

Take `CO/C=C(\Oc1cc(C2CCCCC2)ccc1Cl)C(=O)OC` [E.9, methyl (Z)-2-(2-chloro-5-cyclohexyl-phenoxy)-3-methoxy-prop-2-enoate]: the pest or weed control at 200 ppm (in [1]; in experiment [3]; in the experiment with Plasmopara viticola; in the experiment with Phytophthora infestans) was at least 80% each time. The inhibition of growth at 20 ppm with Mycosphaerella arachidis, in the experiment with Glomerella lagenarium and in the experiment on Monographella nivalis was at least 80% each time.

Regarding `CO/C=C(\Oc1cc(C2CC2C2CC2)ccc1C)C(=O)OC` (stereo not shown) [E.7, methyl (Z)-2-[5-(2-cyclopropylcyclopropyl)-2-methyl-phenoxy]-3-methoxy-prop-2-enoate], the pest or weed control at 200 ppm (in [1]; in experiment [2]; in experiment [3]; in the experiment on Plasmopara viticola; in the experiment with Pyricularia oryzae; with Phytophthora infestans) was at least 80% each time. The inhibition of growth at 20 ppm with Mycosphaerella arachidis, with Glomerella lagenarium and in the experiment on Monographella nivalis was at least 80% in each case.

`CO/C=C(\Oc1cc(C2CCCC2)ccc1C)C(=O)OC` [E.13, methyl (Z)-2-(5-cyclopentyl-2-methyl-phenoxy)-3-methoxy-prop-2-enoate]: the pest or weed control at 200 ppm (in experiment [1]; in the experiment with Alternaria solani; in [2]; in [3]; in the experiment with Plasmopara viticola; with Pyricularia oryzae) was at least 80% in each case. In the experiment with Phytophthora infestans, the pest or weed control at 200 ppm was at least 80%. In addition, the pest or weed control at 60 ppm with Phakopsora pachyrhizi [4] is at least 70%. The “control (%) Phakopsora pachyrhizi (Soybean rust)” value in the experiment with Phakopsora pachyrhizi [5] (6 ppm) is given as 0%; in the experiment on Phakopsora pachyrhizi [5] (20 ppm) it was 4%; in the experiment with Phakopsora pachyrhizi [5] (60 ppm), 46%; with Phakopsora pachyrhizi [5] (200 ppm), 98%; in the experiment on Phakopsora pachyrhizi [6] (0.6 ppm) it was 10%; with Phakopsora pachyrhizi [6] (2 ppm), 10%. Besides, the “control (%) Phakopsora pachyrhizi (Soybean rust)” value with Phakopsora pachyrhizi [6] (6 ppm) was found to be 60%; in the experiment with Phakopsora pachyrhizi [6] (20 ppm), 100%; in the experiment on Phakopsora pachyrhizi [6] (60 ppm) it was 100%; in the experiment with Phakopsora pachyrhizi [6] (200 ppm), 100%. The “control (%) Puccinia recondita (Brown rust), curative” value is 0% in the experiment with Puccinia recondita (20 ppm), 0% in the experiment with Puccinia recondita (60 ppm) and 100% with Puccinia recondita (200 ppm). Further, the inhibition of growth at 20 ppm in the experiment on Mycosphaerella arachidis, in the experiment on Glomerella lagenarium and in the experiment with Monographella nivalis was at least 80% each time.

Take `CO/C=C(\Oc1cc(C2CCC(C(F)F)CC2)ccc1C)C(=O)OC` (stereo not shown) [E.22, methyl (Z)-2-[5-[4-(difluoromethyl)cyclohexyl]-2-methyl-phenoxy]-3-methoxy-prop-2-enoate]: the pest or weed control at 200 ppm (in experiment [1]; in the experiment with Alternaria solani; in experiment [3]; in the experiment on Plasmopara viticola; with Phytophthora infestans) was at least 80% each time. Further, the inhibition of growth at 20 ppm in the experiment on Mycosphaerella arachidis, in the experiment with Glomerella lagenarium and in the experiment on Monographella nivalis was at least 80% each time.

Regarding `CO/C=C(\Oc1cc(C2CCC(C)(C)CC2)ccc1C)C(=O)OC` [E.2, methyl (Z)-2-[5-(4,4-dimethylcyclohexyl)-2-methyl-phenoxy]-3-methoxy-prop-2-enoate], the pest or weed control at 200 ppm (in experiment [1]; in experiment [3]; in the experiment with Plasmopara viticola; with Phytophthora infestans) was at least 80% in each case. The inhibition of growth at 20 ppm with Mycosphaerella arachidis and with Monographella nivalis was at least 80% in each case.

The values are drawn from US12262710B2, “Fungicidal compounds” (SYNGENTA CROP PROTECTION AG, priority 2019, dated 2025).
